Reference: the supplement of paper PMC10307832

Columns and labels:
Experiment in all cases: relative viability (nuclei count vs DMSO), 5 days (fraction); higher = more cells survive
[1] = tested on: NCI-H3122
How it was run: (§1)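 Relative viability equals treated-well nuclei counts divided by vehicle-well nuclei counts. Counts came from 4× images of lung cancer cell lines grown in 1536-well plates for 5 days after pin-tool dosing on the day after seeding. Dosing used one drug alone or a fixed anchor-drug dose plus five library-drug doses (not always all listed) in √10 steps, and values are medians of duplicate plates.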

[2] = tested on: HCC-78
How it was run: as §1

[3] = tested on: LK-2
How it was run: as §1

[4] = tested on: NCI-H2126
How it was run: as §1

[5] = tested on: SW 900
How it was run: as §1

[6] = tested on: RERF-LC-KJ
How it was run: as §1

[7] = tested on: SW 1573
How it was run: as §1

[8] = tested on: ChaGo-K-1
How it was run: as §1

[9] = tested on: NCI-H1975
How it was run: as §1

[10] = tested on: NCI-H2085
How it was run: as §1

[11] = tested on: NCI-H1666
How it was run: as §1

[12] = tested on: EPLC-272H
How it was run: as §1

[13] = tested on: NCI-H23
How it was run: as §1

[14] = tested on: LOU-NH91
How it was run: as §1

[15] = tested on: NCI-H1563
How it was run: as §1

[16] = tested on: LU99A
How it was run: as §1

[17] = tested on: EMC-BAC-2
How it was run: as §1

[18] = tested on: LCLC-103H
How it was run: as §1

[19] = tested on: HCC-827
How it was run: as §1

[20] = tested on: HCC-366
How it was run: as §1

[21] = tested on: NCI-H2405
How it was run: as §1

[22] = tested on: LXF-289
How it was run: as §1

[23] = tested on: SK-LU-1
How it was run: as §1

Clc1ccc(Nc2nnc(Cc3ccncc3)c3ccccc23)cc1 [Vatalanib] + Cc1nc(Nc2ncc(C(=O)Nc3c(C)cccc3Cl)s2)cc(N2CCN(CCO)CC2)n1 [Dasatinib] (partner 0.075 µM)
relative viability ([1]; first compound 0.04 µM): 0.986 | relative viability ([1]; first compound 0.1265 µM): 0.838 | relative viability ([1]; first compound 0.4 µM): 0.795 | relative viability ([1]; first compound 1.265 µM): 0.768 | relative viability ([1]; first compound 4 µM): 0.787 | relative viability ([2]; first compound 0.04 µM): 0.368 | relative viability ([2]; first compound 0.1265 µM): 0.325 | relative viability ([2]; first compound 0.4 µM): 0.333 | relative viability ([2]; first compound 1.265 µM): 0.368 | relative viability ([2]; first compound 4 µM): 0.383 | relative viability ([3]; first compound 0.04 µM): 0.322 | relative viability ([3]; first compound 0.1265 µM): 0.219 | relative viability ([3]; first compound 0.4 µM): 0.244 | relative viability ([3]; first compound 1.265 µM): 0.27 | relative viability ([3]; first compound 4 µM): 0.294 | relative viability ([4]; first compound 0.04 µM): 0.609 | relative viability ([4]; first compound 0.1265 µM): 0.571 | relative viability ([4]; first compound 0.4 µM): 0.585 | relative viability ([4]; first compound 1.265 µM): 0.42 | relative viability ([4]; first compound 4 µM): 0.503 | relative viability ([5]; first compound 0.1265 µM): 0.535 | relative viability ([5]; first compound 0.4 µM): 0.599 | relative viability ([5]; first compound 1.265 µM): 0.474 | relative viability ([5]; first compound 4 µM): 0.417 | relative viability ([6]; first compound 0.04 µM): 0.851 | relative viability ([6]; first compound 0.1265 µM): 0.828 | relative viability ([6]; first compound 0.4 µM): 0.809 | relative viability ([6]; first compound 1.265 µM): 0.623 | relative viability ([6]; first compound 4 µM): 0.593 | relative viability ([7]; first compound 0.04 µM): 0.73 | relative viability ([7]; first compound 0.1265 µM): 0.496 | relative viability ([7]; first compound 0.4 µM): 0.645 | relative viability ([7]; first compound 1.265 µM): 0.395 | relative viability ([7]; first compound 4 µM): 0.476 | relative viability ([8]; first compound 0.04 µM): 0.578 | relative viability ([8]; first compound 0.1265 µM): 0.541 | relative viability ([8]; first compound 0.4 µM): 0.582 | relative viability ([8]; first compound 1.265 µM): 0.569 | relative viability ([8]; first compound 4 µM): 0.586 | relative viability ([9]; first compound 0.04 µM): 0.356 | relative viability ([9]; first compound 0.1265 µM): 0.344 | relative viability ([9]; first compound 0.4 µM): 0.434 | relative viability ([9]; first compound 1.265 µM): 0.282 | relative viability ([9]; first compound 4 µM): 0.287 | relative viability ([10]; first compound 0.04 µM): 0.218 | relative viability ([10]; first compound 0.1265 µM): 0.226 | relative viability ([10]; first compound 0.4 µM): 0.277 | relative viability ([10]; first compound 1.265 µM): 0.188 | relative viability ([10]; first compound 4 µM): 0.258 | relative viability ([11]; first compound 0.04 µM): 0.805 | relative viability ([11]; first compound 0.1265 µM): 0.714 | relative viability ([11]; first compound 0.4 µM): 0.883 | relative viability ([11]; first compound 1.265 µM): 0.791 | relative viability ([11]; first compound 4 µM): 0.758 | relative viability ([12]; first compound 0.04 µM): 0.441 | relative viability ([12]; first compound 0.1265 µM): 0.347 | relative viability ([12]; first compound 0.4 µM): 0.449 | relative viability ([12]; first compound 1.265 µM): 0.36 | relative viability ([12]; first compound 4 µM): 0.481 | relative viability ([13]; first compound 0.04 µM): 0.792 | relative viability ([13]; first compound 0.1265 µM): 0.73 | relative viability ([13]; first compound 0.4 µM): 0.929 | relative viability ([13]; first compound 1.265 µM): 0.772 | relative viability ([13]; first compound 4 µM): 0.667 | relative viability ([14]; first compound 0.04 µM): 0.563 | relative viability ([14]; first compound 0.1265 µM): 0.534 | relative viability ([14]; first compound 1.265 µM): 0.514 | relative viability ([14]; first compound 4 µM): 0.509 | relative viability ([15]; first compound 0.04 µM): 0.45 | relative viability ([15]; first compound 0.1265 µM): 0.479 | relative viability ([15]; first compound 0.4 µM): 0.428 | relative viability ([15]; first compound 1.265 µM): 0.456 | relative viability ([15]; first compound 4 µM): 0.346 | relative viability ([16]; first compound 0.04 µM): 0.499 | relative viability ([16]; first compound 0.1265 µM): 0.58 | relative viability ([16]; first compound 0.4 µM): 0.685 | relative viability ([16]; first compound 1.265 µM): 0.44 | relative viability ([16]; first compound 4 µM): 0.583 | relative viability ([17]; first compound 0.04 µM): 0.329 | relative viability ([17]; first compound 0.1265 µM): 0.31 | relative viability ([17]; first compound 0.4 µM): 0.355 | relative viability ([17]; first compound 1.265 µM): 0.306 | relative viability ([17]; first compound 4 µM): 0.331 | relative viability ([18]; first compound 0.04 µM): 0.428 | relative viability ([18]; first compound 0.1265 µM): 0.462 | relative viability ([18]; first compound 0.4 µM): 0.543 | relative viability ([18]; first compound 1.265 µM): 0.484 | relative viability ([18]; first compound 4 µM): 0.396 | relative viability ([19]; first compound 0.04 µM): 0.375 | relative viability ([19]; first compound 0.1265 µM): 0.31 | relative viability ([19]; first compound 0.4 µM): 0.166 | relative viability ([19]; first compound 1.265 µM): 0.326 | relative viability ([19]; first compound 4 µM): 0.275 | relative viability ([20]; first compound 0.04 µM): 0.829 | relative viability ([20]; first compound 0.1265 µM): 0.573 | relative viability ([20]; first compound 0.4 µM): 0.618 | relative viability ([20]; first compound 1.265 µM): 0.586 | relative viability ([20]; first compound 4 µM): 0.503 | relative viability ([21]; first compound 0.04 µM): 0.226 | relative viability ([21]; first compound 0.1265 µM): 0.195 | relative viability ([21]; first compound 1.265 µM): 0.197 | relative viability ([21]; first compound 4 µM): 0.203 | relative viability ([22]; first compound 0.04 µM): 0.233 | relative viability ([22]; first compound 0.1265 µM): 0.269 | relative viability ([22]; first compound 0.4 µM): 0.336 | relative viability ([22]; first compound 1.265 µM): 0.283 | relative viability ([22]; first compound 4 µM): 0.204 | relative viability ([23]; first compound 0.04 µM): 0.182 | relative viability ([23]; first compound 0.1265 µM): 0.188 | relative viability ([23]; first compound 0.4 µM): 0.208 | relative viability ([23]; first compound 1.265 µM): 0.184 | relative viability ([23]; first compound 4 µM): 0.178
